According to patent publication US20140275122A1, “Voriconazole Formulations” (Fresenius Kabi USA, LLC, priority 2013, published 2014):

Columns and labels:
[1] = aqueous liquid having a pH of 3; cited from earlier work
[2] = Storage stability of lyophilized voriconazole compositions, total impurities by HPLC after reconstitution; format: physicochemical
Description: Lyophilized compositions were formed by dissolving the excipient (SBECD or HPCD) in water and adjusting the pH of the resulting excipient solution. Voriconazole (200 mg) was added to the excipient solution, and the pH of the resulting lyophilization solution was adjusted as necessary. The lyophilization solutions were then filtered and lyophilized to form solid compositions. The lyophilization procedure was adjusted as need for each type of composition; however, the general procedure included reducing the temperature of the lyophilization solutions to −45° C., performing a primary drying at a temperature of from −35 to −15° C. and under a vacuum of from 50-200 milliTorr (mTorr), and performing a secondary drying at a temperature of 40° C. To ensure the lowest initial impurities possible, the solutions for lyophilization were prepared at low temperature, using a nitrogen blanket and purging.
Each composition was sealed in a 5 mL vial with a 13 mm rubber stopper (STELMI 6720GC; American Stelmi Corporation, Princeton, N.J.) and stored at 25° C., 40° C. or 55° C. (all temperatures ±2° C.). After storage for 4 or 8 weeks at 25° C., for 4, 8 or 12 weeks at 40° C., or for 2 or 4 weeks at 55° C., a portion of the vials were reconstituted with 19 mL of water for injection. The reconstituted liquids were analyzed by HPLC to determine the concentrations of voriconazole and of any impurities. For comparison, a portion of each composition was reconstituted at the beginning of the storage time (time=0 weeks) with 19 mL of water for injection, and analyzed by HPLC for voriconazole and impurity concentrations.
Solutions comprising HPCD and voriconazole were prepared as described in Example 1, except that the pH of the solution prior to lyophilization was adjusted to 5.18, 5.5, 6.0, 6.5, or 7.0. The lyophilized compositions were formed and then analyzed for the stability of voriconazole over time at 40° C. or 55° C., as described above with regard to Table 1. Table 2 lists the results of stability analyses of lyophilized compositions containing voriconazole in combination with HPCD, where the compositions had different pH values prior to lyophilization.
The lyophilized compositions were formed and then analyzed for voriconazole stability over time at 40° C. and 55° C., as described above with regard to Table 1. Table 3 lists the results of stability analyses of lyophilized compositions containing voriconazole in combination with HPCD, where the compositions further included one of the amino acids arginine, aspartic acid or glycine.
The lyophilized compositions were formed and then analyzed for voriconazole stability over time at 40° C. and 55° C., as described above with regard to Table 3. Table 4 lists the results of stability analyses of lyophilized compositions containing voriconazole in combination with HPCD, where the compositions further included one of the amino acids lysine, histidine, asparagine, glutamine or threonine.
The effects of pH prior to lyophilization were analyzed for the formulations that included lactose. The lyophilized compositions were formed and then analyzed for voriconazole stability over time at 40° C. and 55° C., as described above with regard to Table 3. […]
The pH prior to lyophilization was adjusted to 6.2 with HCl/NaOH. The lyophilized compositions were formed and then analyzed for voriconazole stability over time at 40° C. and 55° C., as described above with regard to Table 3. […]

## C[C@@H](c1ncncc1F)[C@](O)(Cn1cncn1)c1ccc(F)cc1F [voriconazole, (2R,3S)-2-(2,4-difluorophenyl)-3-(5-fluoro-4-pyrimidinyl)-1-(1H-1,2,4-triazol-1-yl)-2-butanol]
[1]
  solubility of voriconazole: 2 mg/mL
[2]; lyophilized solid stored at 40 °C, 4 weeks
  Total impurities (%): 0.70%
[2]; lyophilized solid stored at 40 °C, 8 weeks
  Total impurities (%): 0.34%
[2]; lyophilized solid stored at 40 °C, 12 weeks
  Total impurities (%): 0.43%
[2]; lyophilized solid stored at 55 °C, 2 weeks
  Total impurities (%): 0.58%
[2]; lyophilized solid, time 0 weeks (reconstituted at beginning of storage)
  Total impurities (%): 0.18%
